The results in this text go back to patent publication US8552161B2, “Saponin compounds, methods of preparation thereof, use thereof and pharmaceutical compositions” (Uniwersytet W Bialymstoku, priority 2009, dated 2013).

For one test, the system named is caspase-3/7 in CEM cells. The test is described as follows: Activity of caspases-3/7 in treated CEM cells (Ac-DEVD-AMC substrate). In kind it is cell-based. As to conditions: 24 h, 7.5 μM and 10 μM (FIG. 4). The procedure: The CEM cells treated with the novel compounds were harvested by centrifugations and homogenized in an extraction buffer (10 mM KCl, 5 mM HEPES, 1 mM EDTA, 1 mM EGTA, 0.2% CHAPS, inhibitors of proteases, pH 7.4) on ice for 20 min. The homogenates were clarified by centrifugation at 10,000 g for […] at 4° C., the proteins were quantified by the Bradford method and diluted to the same concentration. Lysates were then incubated for 1 h with […] Ac-DEVD-AMC as a substrate (Sigma-Aldrich) in an assay buffer (25 mM PIPES, 2 mM EGTA, 2 mM MgCl2, 5 mM DTT, pH 7.3). For negative controls, the lysates were supplemented with […] Ac-DEVD-CHO as a caspase-3/7 inhibitor (Sigma-Aldrich). The fluorescence of the product was measured using a Fluoroskan Ascent microplate reader (Labsystems) at 346/442 nm (ex/em). Here, we determined the activity of caspase-3/7 in CEM cells exposed to 3, 6 or 7 using a fluorogenic substrate Ac-DEVD-AMC and/or caspase 3/7 inhibitor […]. Cells were treated in a dose-dependent manner with compounds 3 (1; 2.5; 5 μM), 6 (0.1; 0.25; 0.5 μM) and 7 (5; 7.5; 10 μM).

A further test concerns leukemia cells (CEM). Briefly: Western blot analysis of apoptosis related proteins. As to conditions: 24 h. The class given is cell-based. The procedure:
The cells were seeded in a density 2.2×10^4 cells/cm^2 using culture medium in 100-mm culture dishes. Immediately the cells were treated by novel saponins: 3 (1; 2.5; 5 μM), 6 (0.1; 0.25; 0.5 μM) and 7 (5; 7.5; 10 μM). DMSO was used as a vehicle for controls. After 24 h treatment, the cells were washed three times with cold PBS (10 mM, pH 7.4) and lysed in ice-cold protein extract RIPA buffer (20 mM Tris-HCl, pH 7.4, 5 mM EDTA, 2 mM EGTA, 100 mM NaCl, 2 mM NaF, 0.2% Nonidet P-40, 30 mM PMSF, 1 mM DTT, […] of aprotinin and leupeptin). The lysate was collected into microfuge tube and incubated on ice for 1 h. It was then cleared by centrifugation at 10,000×g for […] at 4° C., and supernatant was collected, aliquoted, and stored at −80° C. Proteins in lysates were quantified by the Bradford method and then diluted with Laemmli electrophoresis buffer. Proteins were then separated on 10% or 12% SDS-polyacrylamide gels, transferred onto nitrocellulose membranes (Bio-Rad Laboratories, CA, USA) and stained with Ponceau S to check equal protein loading. The membranes were blocked with 5% (w/v) non-fat dry milk and 0.1% Tween-20 in PBS for 2 h and probed with the specific primary antibodies overnight. After washing in PBS and PBS with 0.1% Tween-20, the membranes were probed with horseradish peroxidase-conjugated secondary antibodies and visualized with chemiluminescent detection reagent West Pico Supersignal (Thermo Fisher Scientific, Rockford, USA). To confirm equal protein loading, immunodetection was performed with the anti-α-tubulin monoclonal antibody. The experiments were repeated three times. The protein expressions in treated cells were compared to untreated controls.
(In general: A western blot detects proteins with antibodies after separation by electrophoresis.)

For `C/C=C/C(=O)OC[C@@H](C)[C@@]1(O)[C@@H](O[C@@H]2OC[C@H](O)[C@H](O[C@@H]3OC[C@@H](O)[C@H](O)[C@H]3OC(=O)c3ccc(OC)cc3)[C@H]2OC(C)=O)C[C@H]2[C@@H]3CC=C4C[C@@H](O)CC[C@]4(C)[C@H]3CC[C@@]21C` [Compound 7, (20R)-21-O-[(E)-but-2-enoyl]-20-methylpregn-5-ene-3β,16β,17α,21-tetraol 16-O-{2-O-(4-methoxybenzoyl)-β-D-xylopyranosyl-(1→3)-2′-O-acetyl-α-L-arabinopyranoside}], in the test with caspase-3/7 in CEM cells, the “activity of caspase-3/7 compared with the untreated control” value is “threefold increase”. For the same compound, in the test with leukemia cells (CEM) (dose-dependent (FIG. 5)), the “PARP (Western blot)” value is “cleavage of PARP”, the “antiapoptotic Bcl-2 protein” value is listed as “increased”, the “caspase-3 (Western blot)” value is “accumulation of caspase-3” and the “expression of tumour suppressor protein p53” value is reported as “enhanced expression”. Further, the “phosphorylation of pRb S780” value in the test on leukemia cells (CEM) (same concentrations (FIG. 5)) is listed as “increase of phosphorylation of pRb S780”.
